Measurements reported in patent US20140079636A1, “TARGETED THERAPEUTICS” (priority 2012, published 2014).

Assays:
Hsp90α = target: T1, Hsp90α (Homo sapiens, UniProt P07900); experiment: Hsp90α binding assay (fluorescence polarization, FITC-labeled geldanamycin); details: read-out: Hsp90 binding EC50
T1 construct: purchased BPS Bioscience 50294
Description: An Hsp90^α fluorescence assay kit from BPS Bioscience (Cat #50294) containing Hsp90 recombinant enzyme, FITC-labeled geldanamycin, assay buffer and a low binding 384-well plate was used to assay Hsp90^α binding. Dithiothreitol (DTT)(Cat #D0643) and bovine serum albumin (BSA)(Cat #A2153) were obtained from Sigma-Aldrich. Fluorescence polarization was measured using a PHERAstar microplate reader from BMG LABTECH GmbH, Ortenherg, Germany.
The compounds were diluted to 1 mM in DMSO and loaded into a compound dilution plate to make 3-fold dilutions yielding a total of 8 concentrations. 1 µL of compound was transferred from the dilution plate to the low binding assay plate provided in the assay kit. 5 mL of Hsp90^□ binding solution was prepared having a final concentration of 7 ng/µL Hsp90^□, 5 nM FITC-labeled geldanamycin, 2 mM DTT and 0.1 mg/mL BSA. 49 μL of binding solution was added to each microplate well, incubated at room temperature for 1 hour, then read using the PHERAstar microplate reader. The high control sample contained no compound plus Hsp90^α; the low control sample contained no compound and no Hsp90^α. […] The IC50 was calculated using GraphPad Prism 4 software.

HER2 = experiment: Her2 degradation assay with BT-474 cell line (Example 12, FACS); type: cell-based, human; details: BT-474 cells
Description: HER2 has emerged as a key target for anticancer drugs due to its intrinsic involvement in the phosphatidylinositol-3-kinase-Akt/proteinkinase B (PI3K-Akt) and the mitogen-activated protein kinase (MAPK) pathways, both of which suppress apoptosis and promote tumor cell survival, gene transcription, angiogenesis, cellular proliferation, migration, mitosis, and differentiation. The degradation of HER2 is a measure of efficacy of anticancer therapeutics that target Hsp90. Accordingly, the SDC-TRAP molecules of the invention that comprise a binding moiety that binds Hsp90 were tested in the following HER2 degradation assay.
BT-474 cells (human breast cancer cell line ATCC HTB-20) were obtained from ATCC and seeded into 12-well tissue culture plates at 0.2×10^6/1.8 mL/well. […] Each test compound was titrated in 4-fold dilutions from 5 μM to 78 nM with DMSO and 200 μL of the titration was added to each well of the cell plate. The DMSO final concentration was 0.2%. Cells were incubated overnight at 37° C. in 5% CO2.
Media was decanted from the plate, cells were washed 1× in PBS. 400 μL trypsin (EDTA) per well was added and the cells were incubated for 2 to 3 minutes. […] The cytometer readout was normalized and the potency of each compound is evaluated with IC50 calculated with XL Fit software.

[1] = tested on: MCF-7 breast cancer cells; experiment: Mouse xenograft efficacy in an MCF-7 breast cancer model; type: in vivo; details: 150 or 100 mg/kg/1×wk IV, versus irinotecan alone or ganetespib + irinotecan
Description: MCF-7 breast cancer cells were purchased from ATCC. […] Fetal bovine serum was then be added to the medium. The final concentration of fetal bovine serum was 10%. Cells were cultured at 37° C. and 5% CO2.
Mice that were not put on treatment were euthanized. Animals were sourced through CRL (Wilmington, Mass.).

[2] = Tissue distribution of ganetespib in female CD-1 nu/nu mice bearing RERF human NSCLC xenografts; type: in vivo, mouse; details: 5 min time point
Description: Tissue Distribution of ganetespib in Female CD-1 nu/nu Mice Bearing RERF Human NSCLC Xenografts
To confirm the distribution of ganetespib in blood, livers, kidneys, brains, hearts, lungs and tumors after IV administration of ganetespib to female CD-1 nu/nu mice bearing RERF human NSCLC xenografts, and to examine metabolic profiles of ganetespib in plasma, red blood cells, and above tissues.
Animals: female CD-1 nu/nu mice bearing RERF human NSCLC xenografts (N=3/group)
Dosage: 50 mg/kg Dose level: 10 mL/kg Formulation: 10% DMSO, 18% Cremophor RH40, 3.6% dextrose solution (DRD) Bleeding time points: 5 min, 6, 24 hr Collected tissues: blood (plasma and red blood cells (RBC)), liver, kidneys, brain, heart, lung, tumor
Protein precipitation: 50 μL of 10 times diluted plasma or RBC+150 μL ACN (10 mM NH4OAc), vortexed and centrifuged at 10000 rpm for 8 min; 150 μL supernatant+150 μL water (10 mM NH4OAc)
Protein precipitation: 100 μL homogenized tissue (1:3 tissue:PBS buffer)+100 μL ACN (10 mM NH4OAc), vortexed and centrifuged at 10000 rpm for 8 min

**Q.** Which EC50 (Hsp90α) does the source give for `CCc1c2c(nc3ccc(OC(=O)N4CCN(c5ccc(-n6c(O)nnc6-c6cc(C(C)C)c(O)cc6O)cc5)CC4)cc13)-c1cc3c(c(=O)n1C2)COC(=O)C3(O)CC` (stereo not drawn) [SDC-TRAP-0045, 4,11-diethyl-4-hydroxy-3,14-dioxo-3,4,12,14-tetrahydro-1H-pyrano[3′,4′:6,7]indolizino[1,2-b]quinolin-9-yl 4-(4-(3-(2,4-dihydroxy-5-isopropylphenyl)-5-hydroxy-4H-1,2,4-triazol-4-yl)phenyl)piperazine-1-carboxylate] here?
**A.** The EC50 was 0.0966 µM.

**Q.** For `CCc1c2c(nc3ccc(OC(=O)N4CCN(Cc5ccc(-n6c(O)nnc6-c6cc(C(C)C)c(O)cc6O)cc5)CC4)cc13)-c1cc3c(c(=O)n1C2)COC(=O)C3(O)CC` (stereo not drawn) [SDC-TRAP-0046, 4,11-diethyl-4-hydroxy-3,14-dioxo-3,4,12,14-tetrahydro-1H-pyrano[3′,4′:6,7]indolizino[1,2-b]quinolin-9-yl 4-(4-(3-(2,4-dihydroxy-5-isopropylphenyl)-5-hydroxy-4H-1,2,4-triazol-4-yl)benzyl)piperazine-1-carboxylate], which EC50 (Hsp90α) is on record?
**A.** Its EC50 is 0.102 µM.

**Q.** For `CC(C)c1cc(-c2nnc(O)n2-c2ccc(CN3CCN(C(=O)CCn4cc(F)c(=O)[nH]c4=O)CC3)cc2)c(O)cc1O` [SDC-TRAP-0049], which IC50 (HER2) is on record?
**A.** The IC50 was greater than 5 µM.

**Q.** For `CCc1c2c(nc3ccc(OC(=O)N4CCC(CCn5ccc6cc(-n7c(O)nnc7-c7cc(C(C)C)c(O)cc7O)ccc65)CC4)cc13)-c1cc3c(c(=O)n1C2)COC(=O)[C@]3(O)CC` [SDC-TRAP-0063, 4,11-diethyl-4-hydroxy-3,14-dioxo-3,4,12,14-tetrahydro-1H-pyrano[3′,4′:6,7]indolizino[1,2-b]quinolin-9-yl 4-(2-(5-(3-(2,4-dihydroxy-5-isopropylphenyl)-5-hydroxy-4H-1,2,4-triazol-4-yl)-1H-indol-1-yl)ethyl)piperidine-1-carboxylate], which EC50 (Hsp90α) is on record?
**A.** Its EC50 is 0.157 µM.

**Q.** What about the “Tumor growth suppression (tumor volume)” value [1] of the same compound?
**A.** The value was “greater tumor growth suppression than effector moiety irinotecan alone or unconjugated binding moiety ganetespib and effector moiety irinotecan administered together”.

**Q.** With `CCc1c2c(nc3ccc(O)cc13)-c1cc3c(c(=O)n1C2)COC(=O)[C@@]3(CC)OC(=O)N1CCC(CCn2ccc3cc(-n4c(O)nnc4-c4cc(C(C)C)c(O)cc4O)ccc32)CC1` [SDC-TRAP-0064, (S)-4,11-diethyl-9-hydroxy-3,14-dioxo-3,4,12,14-tetrahydro-1H-pyrano[3′,4′:6,7]indolizino[1,2-b]quinolin-4-yl 4-(2-(5-(3-(2,4-dihydroxy-5-isopropylphenyl)-5-hydroxy-4H-1,2,4-triazol-4-yl)-1H-indol-1-yl)ethyl)piperidine-1-carboxylate] as the compound, how does the EC50 (Hsp90α) read?
**A.** Its EC50 is 0.122 µM.

**Q.** Which EC50 (Hsp90α) does the source give for `COc1cc(O)c(-c2nnc(C(=O)NC(C)C)n2-c2ccc(CN3CCC(C(=O)Nc4cccc5c4CN(C4CCC(=O)NC4=O)C5=O)CC3)cc2)cc1C(C)C` (stereo not drawn) [SDC-TRAP-0115, N-(2-(2,6-dioxopiperidin-3-yl)-1-oxoisoindolin-4-yl)-1-(4-(3-(2-hydroxy-5-isopropyl-4-methoxyphenyl)-5-(isopropylcarbamoyl)-4H-1,2,4-triazol-4-yl)benzyl)piperidine-4-carboxamide] here?
**A.** The EC50 was 0.203 µM.

**Q.** Which EC50 (Hsp90α) does the source give for `CC(C)c1cc(-c2nnc(O)n2-c2ccc(CC3CCN(CC(=O)Nc4cccc5c4CN(C4CCC(=O)NC4=O)C5=O)CC3)cc2)c(O)cc1O` (stereo not drawn) [SDC-TRAP-0116, 2-(4-(4-(3-(2,4-dihydroxy-5-isopropylphenyl)-5-hydroxy-4H-1,2,4-triazol-4-yl)benzyl)piperidin-1-yl)-N-(2-(2,6-dioxopiperidin-3-yl)-1-oxoisoindolin-4-yl)acetamide] here?
**A.** The EC50 was 0.159 µM.

**Q.** With `CC(C)c1cc(-c2nnc(O)n2-c2ccc(CC(=O)N(C)CCOC(=O)Nc3cccc4c3CN(C3CCC(=O)NC3=O)C4=O)cc2)c(O)cc1O` (stereo not drawn) [SDC-TRAP-0127, 2-(2-(4-(3-(2,4-dihydroxy-5-isopropylphenyl)-5-hydroxy-4H-1,2,4-triazol-4-yl)phenyl)-N-methylacetamido)ethyl(2-(2,6-dioxopiperidin-3-yl)-1-oxoisoindolin-4-yl)carbamate] as the compound, how does the EC50 (Hsp90α) read?
**A.** The EC50 was 0.102 µM.

**Q.** With `CCNC(=O)c1nnc(-c2cc(C(C)C)c(O)cc2O)n1-c1ccc(CN2CCC(C(=O)N3CCC(n4cc(-c5cnc(N)c(O[C@H](C)c6c(Cl)ccc(F)c6Cl)c5)cn4)CC3)CC2)cc1` [SDC-TRAP-0134, (R)-4-(4-((4-(4-(4-(6-amino-5-(1-(2,6-dichloro-3-fluorophenyl)ethoxy)pyridin-3-yl)-1H-pyrazol-1-yl)piperidine-1-carbonyl)piperidin-1-yl)methyl)phenyl)-5-(2,4-dihydroxy-5-isopropylphenyl)-N-ethyl-4H-1,2,4-triazole-3-carboxamide] as the compound, how does the EC50 (Hsp90α) read?
**A.** The EC50 was 0.0954 µM.

**Q.** With `CCNC(=O)c1nnc(-c2cc(C(C)C)c(O)cc2O)n1-c1ccc(CN2CCC(C(=O)N3CCC(C(=O)N[C@H]4C[C@H](O[C@H]5C[C@](O)(C(=O)CO)Cc6c(O)c7c(c(O)c65)C(=O)c5c(OC)cccc5C7=O)O[C@@H](C)[C@H]4O)CC3)CC2)cc1` [SDC-TRAP-0198, 1-(1-(4-(3-(2,4-dihydroxy-5-isopropylphenyl)-5-(ethylcarbamoyl)-4H-1,2,4-triazol-4-yl)benzyl)piperidine-4-carbonyl)-N-((2S,3S,4S,6R)-3-hydroxy-2-methyl-6-(((1S,3S)-3,5,12-trihydroxy-3-(2-hydroxyacetyl)-10-methoxy-6,11-dioxo-1,2,3,4,6,11-hexahydrotetracen-1-yl)oxy)tetrahydro-2H-pyran-4-yl)piperidine-4-carboxamide] as the compound, how does the EC50 (Hsp90α) read?
**A.** The EC50 was 0.0933 µM.

**Q.** With `CCc1c2c(nc3ccc(OC(=O)N4CCC[C@H]4C(=O)N4CCN(c5ccc(-n6c(O)nnc6-c6cc(C(C)C)c(O)cc6O)cc5)CC4)cc13)-c1cc3c(c(=O)n1C2)COC(=O)[C@]3(O)CC` [SDC-TRAP-0204, (S)—(S)-4,11-diethyl-4-hydroxy-3,14-dioxo-3,4,12,14-tetrahydro-1H-pyrano[3′,4′:6,7]indolizino[1,2-b]quinolin-9-yl 2-(4-(4-(3-(2,4-dihydroxy-5-isopropylphenyl)-5-hydroxy-4H-1,2,4-triazol-4-yl)phenyl)piperazine-1-carbonyl)pyrrolidine-1-carboxylate] as the compound, how does the EC50 (Hsp90α) read?
**A.** The EC50 was 0.0826 µM.

**Q.** For `CCNC(=O)c1nnc(-c2cc(C(C)C)c(O)cc2O)n1-c1ccc(OC2CCN(C(=O)[C@@H]3CCCN3C(=O)Oc3ccc4nc5c(c(CC)c4c3)Cn3c-5cc4c(c3=O)COC(=O)[C@]4(O)CC)CC2)cc1` [SDC-TRAP-0209], which EC50 (Hsp90α) is on record?
**A.** The EC50 was 0.0546 µM.

**Q.** For `CCc1c2c(nc3ccc(OC(=O)N4CCC[C@H]4C(=O)N4CCC(CCn5ccc6cc(-n7c(O)nnc7-c7cc(C(C)C)c(O)cc7O)ccc65)CC4)cc13)-c1cc3c(c(=O)n1C2)COC(=O)[C@]3(O)CC` [SDC-TRAP-0210], which EC50 (Hsp90α) is on record?
**A.** The EC50 was 0.091 µM.

**Q.** Which “Mean concentration in plasma relative to RBC (times higher)” value [2] does the source give for `CC(C)c1cc(-c2n[nH]c(=O)n2-c2ccc3c(ccn3C)c2)c(O)cc1O` [ganetespib] here?
**A.** Its value is “about 10”.
